Laboratory results published in ChEMBL document CHEMBL1147525, “Structure-activity relationships of untenone A and its derivatives for inhibition of DNA polymerases” (Bioorg Med Chem Lett, 2004).

Key:
Nucleic Acid [1] = experiment: Inhibitory activity against mammalian DNA polymerase alpha; format: nucleic-acid assay
Nucleic Acid [2] = experiment: Inhibitory activity against mammalian DNA polymerase beta; format: nucleic-acid assay
[3] = molecular target: DNA nucleotidylexotransferase (Homo sapiens, UniProt P04053); experiment: Inhibitory activity against human terminal deoxynucleotidyltransferase
DNA nucleotidylexotransferase, sequence (P04053 whole entry): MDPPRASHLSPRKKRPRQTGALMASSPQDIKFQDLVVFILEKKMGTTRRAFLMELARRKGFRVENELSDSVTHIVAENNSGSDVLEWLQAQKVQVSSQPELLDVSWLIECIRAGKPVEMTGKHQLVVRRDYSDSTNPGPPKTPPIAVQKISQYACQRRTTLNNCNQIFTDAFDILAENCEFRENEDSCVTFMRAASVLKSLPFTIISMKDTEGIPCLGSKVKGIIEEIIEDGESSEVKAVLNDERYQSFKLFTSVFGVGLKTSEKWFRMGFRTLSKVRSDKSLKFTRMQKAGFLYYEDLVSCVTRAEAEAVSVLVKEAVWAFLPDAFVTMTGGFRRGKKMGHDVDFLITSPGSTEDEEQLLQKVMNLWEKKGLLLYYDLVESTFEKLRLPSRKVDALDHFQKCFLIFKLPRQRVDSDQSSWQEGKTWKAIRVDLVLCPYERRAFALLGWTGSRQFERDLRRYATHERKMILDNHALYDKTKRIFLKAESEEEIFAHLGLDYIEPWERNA

An IC50 (Nucleic Acid [1]) of 17 µM, an IC50 (Nucleic Acid [2]) of 107 µM and an IC50 [3] of 129 µM were found for CCCCCCCCCCCCCCCCC1=C(C(=O)OC)C(=O)CC1 in this work.

An IC50 (Nucleic Acid [1]) of 5.9 µM, an IC50 (Nucleic Acid [2]) of 9.3 µM and an IC50 [3] of 18 µM were found for CCCCCCCCCCCCCCCC[C@]1(OCOC)C=CC(=O)[C@H]1C(=O)OC (racemic) in this work.

An IC50 (Nucleic Acid [1]) of over 200 µM, an IC50 (Nucleic Acid [2]) of over 200 µM and an IC50 [3] of over 200 µM were found for CCCCCCCCCCCCCCCC[C@]1(O)C=CC(=O)C1 (racemic) in this work.

An IC50 (Nucleic Acid [1]) of 20 µM, an IC50 (Nucleic Acid [2]) of 90 µM and an IC50 [3] of 84 µM were found for CCCCCCCCCCCCCCCC[C@H]1C=CC(=O)[C@@H]1C(=O)OC (racemic) in this work.

An IC50 (Nucleic Acid [1]) of 1.9 µM, an IC50 (Nucleic Acid [2]) of 3.2 µM and an IC50 [3] of 2.5 µM were found for CCCCCCCCCCCCCCCCC1=C[C@H](C(=O)O)[C@H]2CC(C(=O)O)=C(CCCCCCCCCCCCCCCC)[C@H]2[C@H]1C(=O)OC (racemic) in this work.

An IC50 (Nucleic Acid [1]) of 4.3 µM, an IC50 (Nucleic Acid [2]) of 57 µM and an IC50 [3] of 16 µM were found for CCCCCCCCCCCCCCCC[C@]1(O)C=CC(=O)[C@H]1C(=O)OC (racemic) [UNTENONE A] in this work.
